Results published in patent US9351965B2, “Indazole derivatives useful as ERK inhibitors” (Merck Sharp & Dohme Corp., priority 2010, dated 2016).

target: fully phosphorylated, active Mouse ERK2 protein (Mus musculus (Mouse), UniProt P63085); experiment: Active ERK2 (aERK) IMAP assay; type: biochemical; settings: IMAP fluorescence polarization; 30 μM ATP; 30 minute pre-incubation
Sequence (P63085 whole entry): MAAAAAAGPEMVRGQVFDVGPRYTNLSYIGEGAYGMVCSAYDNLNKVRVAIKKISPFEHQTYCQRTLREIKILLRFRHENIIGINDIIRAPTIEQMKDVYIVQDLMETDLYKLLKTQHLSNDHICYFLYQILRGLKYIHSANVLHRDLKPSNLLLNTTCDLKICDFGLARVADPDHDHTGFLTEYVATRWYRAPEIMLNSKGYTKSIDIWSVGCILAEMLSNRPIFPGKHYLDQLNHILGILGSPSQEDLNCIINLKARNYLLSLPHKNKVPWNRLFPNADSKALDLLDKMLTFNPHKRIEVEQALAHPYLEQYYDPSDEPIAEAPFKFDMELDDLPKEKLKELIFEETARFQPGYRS

Structure (SMILES) | IC50 [nM]
O=C(N[C@@H]1CCC[C@](O)(Cn2ccccc2=O)C1)c1ccc2[nH]nc(-c3ccc4nccn4c3)c2c1 (relative stereo) [compound 85, N-[trans-3-hydroxy-3-[(2-oxo-1(2h)-pyridinyl)methyl]cyclohexyl]-3-imidazo[1,2-a]pyridiN-6-yl-1H-indazole-5-carboxamide] | 1000
Cc1cc(-c2n[nH]c3ccc(C(=O)NC4CCCC(Oc5ccccc5Cl)C4)cc23)ccn1 (single isomer, unassigned) [compound 29, N-[3-(2-chlorophenoxy)cyclohexyl]-3-(2-methyl-4-pyridinyl)-1H-indazole-5-carboxamide] | 1000
Cc1cc(-c2n[nH]c3ccc(C(=O)N[C@@H]4CCC[C@@](O)(Cn5ncc6cnccc65)C4)cc23)ccn1 (relative stereo) [compound 91, N-[cis-3-hydroxy-3-(1H-pyrazolo[4,3-c]pyridin-1-ylmethyl)cyclohexyl]-3-(2-methyl-4-pyridinyl)-1H-indazole-5-carboxamide] | 563
Cn1cc2cc(-c3n[nH]c4ccc(C(=O)N[C@@H]5CCC[C@@](O)(Cn6cnc7ccccc76)C5)cc34)ccc2n1 (relative stereo) [compound 62, N-[cis-3-(1H-benzimidazol-1-ylmethyl)-3-hydroxycyclohexyl]-3-(2-methyl-2H-indazol-5-yl)-1H-indazole-5-carboxamide] | 19.9
CC(C)Oc1ccc(-c2n[nH]c3ccc(C(=O)NN4CCCC4CCc4ccccc4)cc23)cn1 (centres unmarked) [compound 144, 3-[6-(1-methylethoxy)-3-pyridinyl]-N-[2-(2-phenylethyl)-1-pyrrolidinyl]-1H-indazole-5-carboxamide] | 497
Cc1nc2ccc(-c3n[nH]c4ccc(C(=O)NC5CCCC(Cn6c(C)nc7ccccc76)C5)cc34)cc2s1 (centres unmarked) [compound 127, N-[3-[(2-methyl-1H-benzimidazol-1-yl)methyl]cyclohexyl]-3-(2-methyl-6-benzothiazolyl)-1H-indazole-5-carboxamide] | 1000
Cc1cc(-c2n[nH]c3ccc(C(=O)NC4CCCC(Oc5ccc(F)cc5F)C4)cc23)ccn1 (single isomer, unassigned) [compound 38, N-[3-(2,4-difluorophenoxy)cyclohexyl]-3-(2-methyl-4-pyridinyl)-1H-indazole-5-carboxamide] | 476
Cc1cc(-c2n[nH]c3ccc(C(=O)NC4CCCC(Oc5ccccc5Cl)C4)cc23)ccn1 (single isomer, unassigned) [compound 30, N-[3-(2-chlorophenoxy)cyclohexyl]-3-(2-methyl-4-pyridinyl)-1H-indazole-5-carboxamide] | 38.6
Cc1cc(-c2n[nH]c3ccc(C(=O)N[C@@H]4CCC[C@@](O)(Cn5c(C)nc6cnccc65)C4)cc23)ccn1 (relative stereo) [compound 77, N-[cis-3-hydroxy-3-[(2-methyl-1H-imidazo[4,5-c]pyridiN-1-yl)methyl]cyclohexyl]-3-(2-methyl-4-pyridinyl)-1H-indazole-5-carboxamide] | 1000
CC(C)Oc1ccc(-c2n[nH]c3ccc(C(=O)N[C@@H]4CCC[C@](O)(Cc5c(F)cccc5F)C4)cc23)cn1 [compound 18, N-[3(S)-[(2,6-difluorophenyl)methyl]-3-hydroxy-1(R)-cyclohexyl]-3-[6-(1-methylethoxy)-3-pyridinyl]-1H-indazole-5-carboxamide] | 140
Cc1cc(-c2n[nH]c3ccc(C(=O)NC4CCCC(Cn5cnc6ncccc65)C4)cc23)ccn1 (centres unmarked) [compound 117, N-[3-(1H-imidazo[4,5-b]pyridin-1-ylmethyl)cyclohexyl]-3-(2-methyl-4-pyridinyl)-1H-indazole-5-carboxamide] | 86.5
CC(C)Oc1cc(-c2n[nH]c3ccc(C(=O)NN4CCCC4CCc4ccccc4)cc23)ccn1 (centres unmarked) [compound 146, 3-[2-(1-methylethoxy)-4-pyridinyl]-N-[2-(2-phenylethyl)-1-pyrrolidinyl]-1H-indazole-5-carboxamide] | 1000
Cn1cc2cc(-c3n[nH]c4ccc(C(=O)N[C@@H]5CCC[C@](O)(Cn6cnc7ccccc76)C5)cc34)ccc2n1 (relative stereo) [compound 61, N-[trans-3-(1H-benzimidazol-1-ylmethyl)-3-hydroxycyclohexyl]-3-(2-methyl-2H-indazol-5-yl)-1H-indazole-5-carboxamide] | 19.3
Cn1cc2cc(-c3n[nH]c4ccc(C(=O)N[C@@H]5CCC[C@](O)(Cn6ccnc6)C5)cc34)ccc2n1 (relative stereo) [compound 58, N-[trans-3-hydroxy-3-(1H-imidazol-1-ylmethyl)cyclohexyl]-3-(2-methyl-2H-indazol-5-yl)-1H-indazole-5-carboxamide] | 62
O=C(N[C@@H]1CCC[C@](O)(Cc2ccccc2F)C1)c1ccc2[nH]nc(-c3ccc4nccn4c3)c2c1 [compound 15, N-[3(S)-[(2-fluorophenyl)methyl]-3-hydroxy-1(R)-cyclohexyl]-3-imidazo[1,2-a]pyridin-6-yl-1H-indazole-5-carboxamide] | 8.6
Cc1cc(-c2n[nH]c3ccc(C(=O)NC4CCCC(Oc5c(F)cccc5F)C4)cc23)ccn1 (centres unmarked) [compound 32, N-[3-(2,6-difluorophenoxy)cyclohexyl]-3-(2-methyl-4-pyridinyl)-1H-indazole-5-carboxamide] | 573

Second part, the molecule after the results:

IC50 [nM] | Structure (SMILES)
153 | Cc1cc(-c2n[nH]c3ccc(C(=O)NN4CCCC(Oc5ccccc5F)C4)cc23)ccn1 (centres unmarked) [compound 142, N-[3-(2-fluorophenoxy)-1-piperidinyl]-3-(2-methyl-4-pyridinyl)-1H-indazole-5-carboxamide]
19.2 | Cc1cc(-c2n[nH]c3ccc(C(=O)NC4CCC(CO)(Cc5ccccc5F)C4)cc23)ccn1 (centres unmarked) [compound 138, N-[3-[(2-fluorophenyl)methyl]-3-(hydroxymethyl)cyclopentyl]-3-(2-methyl-4-pyridinyl)-1H-indazole-5-carboxamide]
84.4 | Cc1cc(-c2n[nH]c3ccc(C(=O)NN4CCCC(Oc5ccccc5Cl)C4)cc23)ccn1 (centres unmarked) [compound 141, N-[3-(2-chlorophenoxy)-1-piperidinyl]-3-(2-methyl-4-pyridinyl)-1H-indazole-5-carboxamide]
14.4 | Cc1nc2ccc(-c3n[nH]c4ccc(C(=O)N[C@@H]5CCC[C@](O)(Cc6ccccc6F)C5)cc34)cn2n1 [compound 12, N-[3(S)-[(2-fluorophenyl)methyl]-3-hydroxy-1(R)-cyclohexyl]-3-(2-methyl[1,2,4]triazolo[1,5-a]pyridin-6-yl)-1H-indazole-5-carboxamide]
1000 | Cc1cc(-c2n[nH]c3ccc(C(=O)NC4CCCC(CO)(Cc5ccccc5F)C4)cc23)ccn1 (mixture of isomers) [compound 130, N-[cis/trans-3-[(2-fluorophenyl)methyl]-3-(hydroxymethyl)cyclohexyl]-3-(2-methyl-4-pyridinyl)-1H-indazole-5-carboxamide]
13.4 | Cc1cc(-c2n[nH]c3ccc(C(=O)NC4CCCC(CO)(Oc5cccc(F)c5)C4)cc23)ccn1 (single isomer, unassigned) [compound 43, N-[3-(3-fluorophenoxy)-3-(hydroxymethyl)cyclohexyl]-3-(2-methyl-4-pyridinyl)-1H-indazole-5-carboxamide]
214 | Cc1cc(-c2n[nH]c3ccc(C(=O)NC4CCCC(CO)(Oc5cccc(F)c5)C4)cc23)ccn1 (single isomer, unassigned) [compound 44, N-[3-(3-fluorophenoxy)-3-(hydroxymethyl)cyclohexyl]-3-(2-methyl-4-pyridinyl)-1H-indazole-5-carboxamide]
1000 | Cc1cc(-c2n[nH]c3ccc(C(=O)NC4CCCC(Cc5ccccc5F)(C(=O)O)C4)cc23)ccn1 (mixture of isomers) [compound 131, cis/trans-1-[(2-fluorophenyl)methyl]-3-[[[3-(2-methyl-4-pyridinyl)-1H-indazol-5-yl]carbonyl]amino]cyclo-hexanecarboxylic acid]
25 | Cc1cc(-c2n[nH]c3ccc(C(=O)NC4CCCC(O)(C(O)c5ccccc5)C4)cc23)ccn1 (centres unmarked) [compound 49, N-[3-hydroxy-3-(hydroxyphenylmethyl)cyclohex-yl]-3-(2-methyl-4-pyridinyl)-1H-indazole-5-carboxamide (diasterimer 1)]
821 | Cc1cc(-c2n[nH]c3ccc(C(=O)N[C@@H]4CCC[C@@](O)(Cn5c(C(F)(F)F)nc6ccccc65)C4)cc23)ccn1 [compound 68]
1000 | CCOC(=O)C1(Cc2ccccc2F)CCCC(NC(=O)c2ccc3[nH]nc(-c4ccnc(C)c4)c3c2)C1 (mixture of isomers) [compound 128, ethyl cis/trans-1-[(2-fluorophenyl)methyl]-3-[[[3-(2-methyl-4-pyridinyl)-1H-indazol-5-yl]carbonyl]amino]cyclo-hexanecarboxylate]
193 | Cc1cc(-c2n[nH]c3ccc(C(=O)NN4CCCC(CO)(Cc5ccccc5F)C4)cc23)ccn1 (centres unmarked) [compound 151, N-[3-[(2-fluorophenyl)methyl]-3-(hydroxymethyl)-1-piperidinyl]-3-(2-methyl-4-pyridinyl)-1H-indazole-5-carboxamide]
388 | Cc1cc(-c2n[nH]c3ccc(C(=O)NN4CCCC(CO)(Oc5cc(F)ccc5F)C4)cc23)ccn1 (centres unmarked) [compound 147, N-[3-(2,5-difluorophenoxy)-3-(hydroxymethyl)-1-piperidinyl]-3-(2-methyl-4-pyridinyl)-1H-indazole-5-carboxamide]
61 | Cc1cc(-c2n[nH]c3ccc(C(=O)NC4CCCC(Oc5ccccc5F)C4)cc23)ccn1 (single isomer, unassigned) [compound 27, N-[3-(2-fluorophenoxy)cyclohexyl]-3-(2-methyl-4-pyridinyl)-1H-indazole-5-carboxamidem]
577 | Cc1cc(-c2n[nH]c3ccc(C(=O)NC4CCCC(O)(C(=O)c5ccccc5)C4)cc23)ccn1 (centres unmarked) [compound 47, N-(3-benzoyl-3-hydroxycyclohexyl)-3-(2-methyl-4-pyridinyl)-1H-indazole-5-carboxamide]
258 | Cc1cc(-c2n[nH]c3ccc(C(=O)NC4CCCC(O)(C(=O)c5ccccc5)C4)cc23)ccn1 (centres unmarked) [compound 53, N-(3-benzoyl-3-hydroxycyclohexyl)-3-(2-methyl-4-pyridinyl)-1H-indazole-5-carboxamide]
